Laboratory results taken from PubChem BioAssay AID1259407 (Chemical Carcinogenesis Research Information System (CCRIS), 2018).
Active and inactive are the calls of the source. How the calls were made is not given here.

System: CCRIS mutagenicity, Ames/micronucleus/aberration tests
Assay: CCRIS mutagenicity studies
[1] = Test System: AMES SALMONELLA TYPHIMURIUM, Strain/Indicator: TA97, Metabolic Activation: RAT, LIVER, S-9, AROCLOR 1254, Method: PREINCUBATION
[2] = Test System: AMES SALMONELLA TYPHIMURIUM, Strain/Indicator: TA98, Metabolic Activation: RAT, LIVER, S-9, AROCLOR 1254, Method: PREINCUBATION
[3] = Test System: AMES SALMONELLA TYPHIMURIUM, Strain/Indicator: TA100, Metabolic Activation: NONE, Method: PREINCUBATION
[4] = Test System: AMES SALMONELLA TYPHIMURIUM, Strain/Indicator: TA100, Metabolic Activation: RAT, LIVER, S-9, AROCLOR 1254, Method: PREINCUBATION
[5] = Test System: AMES SALMONELLA TYPHIMURIUM, Strain/Indicator: TA1535, Metabolic Activation: NONE, Method: PREINCUBATION
[6] = Test System: AMES SALMONELLA TYPHIMURIUM, Strain/Indicator: TA1535, Metabolic Activation: RAT, LIVER, S-9, AROCLOR 1254, Method: PREINCUBATION

## C[C@](N)(Cc1ccc(O)c(O)c1)C(=O)O
End Point: IN VITRO CHROMOSOMAL ABERRATIONS, Test System: CHO CELLS, Metabolic Activation: NONE
  mutagenic call: inactive; negative
End Point: IN VITRO CHROMOSOMAL ABERRATIONS, Test System: CHO CELLS, Metabolic Activation: RAT, LIVER, S-9, AROCLOR 1254
  mutagenic call: inactive; negative; testing limited by solubility of the chemical
Test System: AMES SALMONELLA TYPHIMURIUM, Strain/Indicator: TA97, Metabolic Activation: HAMSTER, LIVER, S-9, AROCLOR 1254 (10 OR 30%), Method: PREINCUBATION
  mutagenic call: inactive; negative
Test System: AMES SALMONELLA TYPHIMURIUM, Strain/Indicator: TA97, Metabolic Activation: HAMSTER, LIVER, S-9, AROCLOR 1254, Method: PREINCUBATION
  mutagenic call: inactive; negative
Test System: AMES SALMONELLA TYPHIMURIUM, Strain/Indicator: TA97, Metabolic Activation: NONE, Method: PREINCUBATION
  mutagenic call: inactive; negative
Test System: AMES SALMONELLA TYPHIMURIUM, Strain/Indicator: TA97, Metabolic Activation: RAT, LIVER, S-9, AROCLOR 1254 (10 OR 30%), Method: PREINCUBATION
  mutagenic call: inactive; negative
[1]
  mutagenic call: inactive; negative
Test System: AMES SALMONELLA TYPHIMURIUM, Strain/Indicator: TA98, Metabolic Activation: HAMSTER, LIVER, S-9, AROCLOR 1254 (10%), Method: PREINCUBATION
  mutagenic call: inactive; negative
Test System: AMES SALMONELLA TYPHIMURIUM, Strain/Indicator: TA98, Metabolic Activation: HAMSTER, LIVER, S-9, AROCLOR 1254 (30%), Method: PREINCUBATION
  mutagenic call: inactive; negative
Test System: AMES SALMONELLA TYPHIMURIUM, Strain/Indicator: TA98, Metabolic Activation: HAMSTER, LIVER, S-9, AROCLOR 1254, Method: PREINCUBATION
  mutagenic call: inactive; negative
Test System: AMES SALMONELLA TYPHIMURIUM, Strain/Indicator: TA98, Metabolic Activation: NONE, Method: PREINCUBATION
  mutagenic call: inactive; negative
Test System: AMES SALMONELLA TYPHIMURIUM, Strain/Indicator: TA98, Metabolic Activation: RAT, LIVER, S-9, AROCLOR 1254 (10%), Method: PREINCUBATION
  mutagenic call: inactive; negative
Test System: AMES SALMONELLA TYPHIMURIUM, Strain/Indicator: TA98, Metabolic Activation: RAT, LIVER, S-9, AROCLOR 1254 (30%), Method: PREINCUBATION
  mutagenic call: inactive; negative
[2]
  mutagenic call: inactive; negative
Test System: AMES SALMONELLA TYPHIMURIUM, Strain/Indicator: TA100, Metabolic Activation: HAMSTER, LIVER, S-9, AROCLOR 1254 (10%), Method: PREINCUBATION
  mutagenic call: inactive; negative
Test System: AMES SALMONELLA TYPHIMURIUM, Strain/Indicator: TA100, Metabolic Activation: HAMSTER, LIVER, S-9, AROCLOR 1254 (30%), Method: PREINCUBATION
  mutagenic call: inactive; negative
Test System: AMES SALMONELLA TYPHIMURIUM, Strain/Indicator: TA100, Metabolic Activation: HAMSTER, LIVER, S-9, AROCLOR 1254, Method: PREINCUBATION
  mutagenic call: inactive; negative
[3]
  mutagenic call: inactive; negative
Test System: AMES SALMONELLA TYPHIMURIUM, Strain/Indicator: TA100, Metabolic Activation: RAT, LIVER, S-9, AROCLOR 1254 (10%), Method: PREINCUBATION
  mutagenic call: inactive; negative
Test System: AMES SALMONELLA TYPHIMURIUM, Strain/Indicator: TA100, Metabolic Activation: RAT, LIVER, S-9, AROCLOR 1254 (30%), Method: PREINCUBATION
  mutagenic call: inactive; negative
[4]
  mutagenic call: inactive; negative
Test System: AMES SALMONELLA TYPHIMURIUM, Strain/Indicator: TA1535, Metabolic Activation: HAMSTER, LIVER, S-9, AROCLOR 1254 (10%), Method: PREINCUBATION
  mutagenic call: inactive; negative
Test System: AMES SALMONELLA TYPHIMURIUM, Strain/Indicator: TA1535, Metabolic Activation: HAMSTER, LIVER, S-9, AROCLOR 1254 (30%), Method: PREINCUBATION
  mutagenic call: inactive; negative
Test System: AMES SALMONELLA TYPHIMURIUM, Strain/Indicator: TA1535, Metabolic Activation: HAMSTER, LIVER, S-9, AROCLOR 1254, Method: PREINCUBATION
  mutagenic call: inactive; negative
[5]
  mutagenic call: inactive; negative
Test System: AMES SALMONELLA TYPHIMURIUM, Strain/Indicator: TA1535, Metabolic Activation: RAT, LIVER, S-9, AROCLOR 1254 (10%), Method: PREINCUBATION
  mutagenic call: inactive; negative
Test System: AMES SALMONELLA TYPHIMURIUM, Strain/Indicator: TA1535, Metabolic Activation: RAT, LIVER, S-9, AROCLOR 1254 (30%), Method: PREINCUBATION
  mutagenic call: inactive; negative
[6]
  mutagenic call: inactive; negative

## Oc1ccc(O)c(O)c1
End Point: IN VITRO CHROMOSOMAL ABERRATIONS, Test System: HUMAN PERIPHERAL LYMPHOCYTES, Metabolic Activation: NONE
  mutagenic call: active; positive (ploidy changes)
End Point: IN VITRO CHROMOSOMAL ABERRATIONS, Test System: HUMAN PERIPHERAL LYMPHOCYTES, Metabolic Activation: NONE, Method: FISH
  mutagenic call: active; positive (ploidy); greater effects on certain chromosomes
End Point: IN VITRO CHROMOSOMAL ABERRATIONS, Test System: HUMAN PERIPHERAL LYMPHOCYTES, Metabolic Activation: NONE, Method: FISH - DUAL COLOR PROBES
  mutagenic call: active; positive (ploidy changes in chromosomes 7 and 8)
End Point: IN VITRO CHROMOSOMAL ABERRATIONS, Test System: HUMAN PERIPHERAL LYMPHOCYTES, Metabolic Activation: NONE, Method: FISH- DUAL COLOR PROBES
  mutagenic call: inactive; negative for translocations
End Point: IN VITRO MICRONUCLEUS, Test System: HUMAN PERIPHERAL LYMPHOCYTES, Metabolic Activation: NONE, Method: FISH - DUAL COLOR PROBES
  mutagenic call: active; positive
[1]
  mutagenic call: inactive; negative
Test System: AMES SALMONELLA TYPHIMURIUM, Strain/Indicator: TA97, Metabolic Activation: RAT, LIVER, S-9, PHENOBARBITAL, Method: PREINCUBATION
  mutagenic call: inactive; negative
[2]
  mutagenic call: inactive; negative
Test System: AMES SALMONELLA TYPHIMURIUM, Strain/Indicator: TA98, Metabolic Activation: RAT, LIVER, S-9, PHENOBARBITAL, Method: PREINCUBATION
  mutagenic call: inactive; negative
Test System: AMES SALMONELLA TYPHIMURIUM, Strain/Indicator: TA100, Metabolic Activation: NONE, Method: FLUCTUATION TEST
  mutagenic call: inactive; negative
[3]
  mutagenic call: inactive; negative
[4]
  mutagenic call: inactive; negative
Test System: AMES SALMONELLA TYPHIMURIUM, Strain/Indicator: TA100, Metabolic Activation: RAT, LIVER, S-9, PCB, Method: FLUCTUATION TEST
  mutagenic call: active; positive
Test System: AMES SALMONELLA TYPHIMURIUM, Strain/Indicator: TA100, Metabolic Activation: RAT, LIVER, S-9, PHENOBARBITAL, Method: PREINCUBATION
  mutagenic call: inactive; negative
Test System: AMES SALMONELLA TYPHIMURIUM, Strain/Indicator: TA102, Metabolic Activation: NONE, Method: PREINCUBATION
  mutagenic call: inactive; negative
Test System: AMES SALMONELLA TYPHIMURIUM, Strain/Indicator: TA102, Metabolic Activation: RAT, LIVER, S-9, AROCLOR 1254, Method: PREINCUBATION
  mutagenic call: inactive; negative
Test System: AMES SALMONELLA TYPHIMURIUM, Strain/Indicator: TA104, Metabolic Activation: NONE, Method: PREINCUBATION
  mutagenic call: inactive; negative
[5]
  mutagenic call: inactive; negative
[6]
  mutagenic call: inactive; negative
Test System: CHINESE HAMSTER V-79, Strain/Indicator: V-79/6-THIOGUANINE, Metabolic Activation: NONE
  mutagenic call: active; positive
